Experimental data published in BindingDB's records for doi:10.1021/acs.biochem.7b00151 (University of Missouri, 2017).

These compounds were tested against T1, Tyrosine-protein phosphatase non-receptor type 1 [1-322] (Human, UniProt P18031) (assay: PTP1B Activity Assay). Settings: pH 7.
T1 construct: 1-322
T1 sequence (P18031 whole entry): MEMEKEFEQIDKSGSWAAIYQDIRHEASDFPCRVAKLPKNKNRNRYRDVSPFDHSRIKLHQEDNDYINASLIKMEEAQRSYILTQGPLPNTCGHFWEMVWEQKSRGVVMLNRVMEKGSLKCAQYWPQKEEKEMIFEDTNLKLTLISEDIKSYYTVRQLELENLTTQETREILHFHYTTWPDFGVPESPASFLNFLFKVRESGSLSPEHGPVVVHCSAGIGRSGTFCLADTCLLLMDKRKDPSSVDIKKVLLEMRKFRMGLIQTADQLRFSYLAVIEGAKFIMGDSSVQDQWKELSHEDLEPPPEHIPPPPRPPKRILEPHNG
Procedure: The test compounds were introduced into the solutions as stock solutions dissolved in DMSO. After 20−30 s, the amount of PTP1B activity in the assays was assessed by measuring the increase in absorbance at 410 nm as a function of time resulting from the enzyme-mediated conversion of p-NPP to p-nitrophenolate.

IC50 | Ki | SMILES
54 µM | 27 µM | Cc1ccc(-c2ccc(NC(=O)CBr)cc2)cc1N1CC(=O)NS1(=O)=O [2-Bromo-N-[3'-(1,1-dioxido-4-oxo-1,2,5-thiadiazolidin-2-yl)-4'-methyl[1,1'-biphenyl]-4-yl]-acetamide (5a)]
77 µM | 38.5 µM | Cc1ccc(-c2ccccc2)cc1N1CC(=O)NS1(=O)=O [5-(4-Methyl[1,1'-biphenyl]-3-yl)-1,2,5-thiadiazolidin-3-one 1,1-Dioxide (2b)]
64 µM | 32 µM | CC(=O)Nc1ccc(-c2ccc(C)c(N3CC(=O)NS3(=O)=O)c2)cc1 [N-[3'-(1,1-Dioxido-4-oxo-1,2,5-thiadiazolidin-2-yl)-4'-methyl[1,1'-biphenyl]-4-yl]acetamide (5b)]
